Test results reported in patent publication US20220378763A1, “COMPOUND FOR TREATMENT OF ACUTE INFLAMMATION IN THE MYOCARDIUM” (CALPROTECT AB, priority 2019, published 2022).

Test system: C57BL/6 mice with coronary artery ligation for 60 minutes followed by reperfusion
Assay: Myocardial ischemia (60 minutes)/reperfusion, short-term (3 days) treatment: echocardiography and flow cytometry
Assay type: in vivo, mouse
Procedure: (a) C57BL/6 mice with MI induced by coronary artery ligation for 60 minutes followed by reperfusion received three daily i.p. injections of ABR or PBS, starting at the time of reperfusion and administered on days 0, 1 and 2 post-MI. Cardiac function was assessed by echocardiography the day before surgery and on days 3, 7, 14 and 21 in the Sham (n=10), Sham+ABR (n=10), MI (n=22) and MI+3d ABR (n=13) groups. […] (F) Neutrophil and (G) monocyte counts in the bone marrow were increased 2 days after myocardial ischaemia/reperfusion in the MI+3d ABR group (n=6) compared to the MI group treated with PBS (n=6). (H) Neutrophil, (I) monocyte, and (J) macrophage numbers in the myocardium in the MI and MI+3d ABR groups on Day 2 post-MI. […] The P-values refer to the difference between the MI and the MI+3d ABR groups. The P-values for the repeated measurement experiments refer to the difference between the MI and the MI+3d ABR groups, analysed by 2-way ANOVA with Fisher LSD post-hoc evaluation. Only the significant P-values are shown. Data is presented as mean±SD.
Ultrasound measurements were performed at day −1 (baseline), 7, and 21 to assess cardiac function using a Vevo 770 echocardiographic imaging system with a 707B probe (VisualSonics, Toronto, Canada). In selected experiments, additional assessment was performed on days 3 and 14. The mice were anesthetized using 1-3% isoflurane and hair was carefully removed using depilatory cream. To maintain body temperature, the mice were placed in supine position on a heated surface (37° C.). Two-dimensional M-mode images were recorded in the parasternal short-axis view at the mid-papillary level. Five complete cardiac cycles were traced to calculate fractional shortening, ejection fraction, left ventricular systolic volume, and left ventricular diastolic volume by using the VisualSonics software.
Procedures were carried out as outlined in Example 2. In contrast to permanent ischemia, the coronary artery occlusion was maintained for 60 minutes followed by removal of the ligature, allowing for reperfusion of the ischemic myocardium. Three doses of 30 mg/Kg ABR-238901 diluted in PBS were administered by daily i.p. injections at the time of the reperfusion, and after 24 h and 48 h (FIG. 5A).

[1] = 2 days after ischemia/reperfusion

COc1ncc(S(=O)(=O)Nc2cncc(Cl)c2O)cc1Br [ABR-238901, 5-bromo-N-(5-chloro-4-hydroxypyridin-3-yl)-6-methoxypyridine-3-sulfonamide]
Left ventricular EF (30 mg/Kg i.p. at reperfusion, 24 h, 48 h, echocardiography, day 3): 42% | Left ventricular EF, average (30 mg/Kg i.p. at reperfusion, 24 h, 48 h, echocardiography, day 7): 45% | Left ventricular EF (30 mg/Kg i.p. at reperfusion, 24 h, 48 h, echocardiography, day 21): 48% | Numbers of monocytes in the bone marrow [1]: increased | Numbers of neutrophils in the bone marrow [1]: increased | Average EDV vs MI control (3 days treatment): no significant differences | Average ESV vs MI control (3 days treatment): no significant differences | Cardiac output, average (3 days treatment, day 21): 15.7 mL/min | Macrophage infiltration in the myocardium (day 2 after ischemia/reperfusion): decreased
